Reference: patent US8785400B2, “Methods and compositions relating to islet cell neogenesis” (CureDM Group Holdings, LLC, priority 2006, dated 2014)

Tests used:
[1] = tested on: pancreatic islets of treated mice; assay: Quantitative immunohistochemistry image analysis of mouse pancreata (Example 7); type: in vivo; details: vs control
Description: The islet mass of the placebo group was 854,362 μm (2) compared with 2,161,782 μm (2) in HIP-treated mice.
Islet size was not different between HIP treated and control group, whereas, islet number and mass was increased.

[2] = tested on: streptozocin-induced diabetic mouse; assay: Streptozocin-induced diabetic mouse (Example 6); type: in vivo
Description: The streptozocin-induced diabetic mouse is a convenient animal model of type 1 diabetes because researchers are able to chemically induce diabetes under controlled conditions rather than waiting for mice to become diabetic naturally or by forcing diabetes through prescribed obesity. Based on experience with the streptozocin model in the rat, a high degree of variability was anticipated for the induction of the disease in mice and therefore 60 mice were induced with streptozocin. Mice were injected intraperitoneally with streptozocin at 40 mg/kg in citrate buffer, pH4.5, on 5 consecutive days in an attempt to render them diabetic. A mouse was considered diabetic once its blood glucose level was greater than 16.7 mmol/L (300 mg/dL) for at least 1 week. If the blood glucose level of any animal became too high (>400 mg/dL) the animal was treated with an effective amount of insulin. In this example, 60 male mice, ranging from 6-8 weeks old at the outset of the study, were treated with streptozocin as described above. Those mice that were declared diabetic were then used to test the effectiveness of HIP2 as compared to other test agents.
Animals were group housed in compliance with the National Research Council “Guide for the Care and Use of Laboratory Animals”. The animals received 12 hours light/12 hours dark, except when room lights were turned on during the dark cycle to accommodate study procedures. Room temperature was maintained between 18 to 26° C. at all times. Relative humidity was maintained between 30-70% at all times. All animals were given access to Harlan Teklad Rodent Diet or equivalent and tap water via water bottle. Animals were allowed to acclimate to their new environment for a minimum of 7 days prior to first dosing.
Mice were randomly divided and assigned to study groups. Each study group was assigned treatment with one of 5 test agents (see Treatment section below). Prior to being treated, each mouse was tested for diabetes via monitoring their blood glucose levels. After confirmation that the mice were diabetic (blood glucose levels greater than 16.7 mmol/L (300 mg/dL) for at least 1 week) the mice were dosed with their respective test agent.
Each study group received doses of one of the following test agents: HIP2, HIP1, HIP, Hamster INGAP (SEQ ID NO:1) or isotonic saline “Vehicle” (0.9% NaCl) (negative control). Mice were given doses of their respective agent interperitoneally twice daily (am and pm, +/−2 hours for each administration) at 250 ug/dose, in 100 ul dose volume, for 28 consecutive days. Test agents were prepared once daily by dissolving the appropriate amount of test agent in isotonic saline to result in a 2.5 mg/ml solution. Blood glucose levels were tested every 3 days, at the same time each day, using a glucometer. If the blood glucose level in any animal became too high, the animal was treated with insulin. At the end of the treatment, all surviving animals were euthanized by CO2 asphyxiation following terminal blood collection. Blood samples were collected under CO2 cardiocentesis. The plasma was separated and then frozen at −80° C. For histological analysis, the pancreas from each mouse was removed and snap-frozen.
(§1) Blood glucose levels are measured every 3 days and tracked to evaluate differences in glucose levels.

[3] = tested on: human pancreatic islet tissue cultures; assay: Insulin production by ELISA, human islet tissue cultures (Example 3); type: cell-based; details: vs SEQ ID NO:1 and SEQ ID NO:5
Protocol: Samples are 0.002 μg total protein in duplicate and measured by ELISA assay.
(§2) Values are mean insulin units (of duplicate samples) as measured by ELISA assay.
(§3) Human pancreatic tissue was treated as described in Example 1 and Insulin production was measured by ELISA assay. FIGS. 5 and 6 show the results of this experiment to show a dose response and to again compare the effect of HIP2 on the two different fractions of tissue as compared to the hamster INGAP sequence and a scrambled negative peptide sequence. […] The results in FIG. 5 were generated using 5 μg of each peptide, while the results in FIG. 6 were acquired using 0.002 μg of each peptide.

[4] = tested on: NOD mice; assay: NOD mouse model of type 1 diabetes (Example 5); type: in vivo; details: 250 ug/dose i.p. twice daily, 28 days, with anti-CD3, vs other test agents
Description: The non-obese diabetic (NOD) mouse strain has long been studied as an excellent model of type 1 diabetes because it spontaneously develops a disease that is very similar to the human condition. Diabetes in NOD mice is mediated by inflammatory autoreactive T cells that recognize pancreatic islet antigens and escape central and peripheral tolerance. In a parental colony of NOD mice, incidence of diabetes in female NOD mice is typically 75-90% by 30 weeks but may exceed 90% in some cohorts. In this example, 50 female NOD mice, ranging from 13-14 weeks old at the outset of the study, are used to test the effectiveness of HIP2 as compared to other test agents. Due to the unexpected variability of the degree of onset of disease, the number used in this example (50 female mice) is considered to be the minimum needed to result in a sufficient number of mice that will onset with disease within the timeframe of the study.
Animals were group housed in compliance with the National Research Council “Guide for the Care and Use of Laboratory Animals”. The animals received 12 hours light/12 hours dark, except when room lights were turned on during the dark cycle to accommodate study procedures. Room temperature was maintained between 18 to 26° C. at all times. […]
as §1

[5] = tested on: human pancreatic ductal tissue cultures; assay: Insulin production by ELISA, human ductal tissue cultures (Example 3); type: cell-based
Protocol: Samples are 5 μg total protein in duplicate and measured by ELISA assay.
as §2, §3

[6] = streptozocin mice, 250 ug/dose i.p. twice daily, 28 days, vs other test agents

HIP2: Human proIslet Peptide, fragment of human REG3A, in purified, synthetic, or recombinant form (SEQ ID NO:4) (IGLHDPTQGTEPNG; Fragment of naturally occurring human REG3 protein)
total islet mass (qualitative) [1]: increased total islet mass
total islet number (qualitative) [1]: increased total islet number
time at which mice were completely insulin-free [2]: ≤ 21 days
glucose levels from baseline compared with control ([2]; streptozocin mice): significant reduction
blood glucose levels [2, 6]: pronounced reduction
insulinitis in the pancreas [2, 6]: decreased showing of insulinitis
insulin requirements (and rate of decrease) ([2]; streptozocin mice, compared to placebo): Significant reductions
insulin production (FIG. 6) ([3]; after 10 days, Rosenberg protocol, 0.002 μg): increased insulin production
insulin production (FIG. 8A) ([3]; two concentrations (3 μM and 1 mM)): increased insulin production
blood glucose levels [4]: pronounced reduction
insulinitis in pancreas [4]: decreased showing of insulinitis
effect of the higher concentration on insulin production ([5]; ductal cultures): more profound effect
insulin production (FIG. 5) ([5]; ductal cultures, after 10 days, Rosenberg protocol, 5 μg, vs SEQ ID NO:1 and SEQ ID NO:5): increased insulin production
insulin production (FIG. 8B) ([5]; ductal cultures, two concentrations (3 μM and 1 mM), vs SEQ ID NO:1 and SEQ ID NO:5): increased insulin production
induction of insulin production compared with INGAP or scrambled peptide ([5]; in each of the examples (ductal and islet fractions)): more effectively
